Test results published in patent US11260127B2, “Mesoporous silica nanoparticles for diagnostic and therapeutic applications” (CASE WESTERN RESERVE UNIVERSITY, priority 2017, dated 2022).

Test: In vitro RF-triggered drug release from Fe@MSN nanoparticles
Format: physicochemical
Conditions: for drug release rate of two drugs compared: release from Fe@MSN under the same RF field
Method: FIGS. 2(A-E) illustrate in vitro evaluation of radiofrequency (RF)-triggered drug release from Fe@MSN nanoparticles. (A) The release of DOX was triggered from Fe@MSN particles using an RF field at different frequencies (1, 20, 50 and 380 kHz; n=4). […] (C) Effect of elevated temperature on the drug release from Fe@MSN particles with an incubation time of 60 min (n=4; unpaired t-test P<0.0001). (D) Drug release from Fe@MSN at different particle concentration under an RF field at 50 kHz. (E) Drug release from Fe@MSN particles at different depths in the RF source (RF field: 50 kHz).
Further, when the temperature of the Fe@MSN suspension was elevated to 60° C. for 60 min by external heating, negligible drug was released ([…]). These two findings indicate that the triggered release mechanism is not based on hyperthermic effects applications, thereby minimizing the role of Neel relaxation phenomenon in RF-triggered drug release from the Fe@MSN nanoparticles.
Similar drug release rate per nanochain particle was observed from suspensions of dramatically different concentrations of Fe@MSN nanoparticles when subjected to the same RF field.
The RF-triggered drug release is nearly independent of the type of drug molecules.

RF-triggered drug release rate (RF field, very low Fe@MSN concentration, 1 or 10 kHz) | SMILES | drug release rate of two drugs compared
 | CC(=N)NCc1cccc(CN)c1 [1400 W] | almost identical
triggered in a controlled manner | COc1cccc2c1C(=O)c1c(O)c3c(c(O)c1C2=O)C[C@@](O)(C(=O)CO)C[C@@H]3O[C@H]1C[C@H](N)[C@H](O)[C@H](C)O1 [DOX, doxorubicin] | almost identical
